Measurements reported in patent US10905654B2, “Compositions of bakuchiol and methods of making the same” (Unigen, Inc., priority 2005, dated 2021).

Experiments:
PTPIB = target: T1, PTPIB (Homo sapiens, UniProt P18031); settings: Kim et al. 2005; cited from earlier work
T1 sequence (P18031 1-435): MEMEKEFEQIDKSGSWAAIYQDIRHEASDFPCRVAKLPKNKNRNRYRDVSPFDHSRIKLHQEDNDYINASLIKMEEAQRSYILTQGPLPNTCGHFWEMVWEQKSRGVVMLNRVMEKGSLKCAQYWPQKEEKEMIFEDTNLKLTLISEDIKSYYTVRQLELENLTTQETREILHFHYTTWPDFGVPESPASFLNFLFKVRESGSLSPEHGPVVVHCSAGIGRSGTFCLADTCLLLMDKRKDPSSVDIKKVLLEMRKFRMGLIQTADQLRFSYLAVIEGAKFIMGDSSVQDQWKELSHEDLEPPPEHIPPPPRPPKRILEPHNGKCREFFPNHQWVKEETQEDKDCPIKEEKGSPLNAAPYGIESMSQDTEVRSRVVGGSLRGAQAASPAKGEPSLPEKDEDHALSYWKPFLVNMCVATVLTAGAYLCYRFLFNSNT

[1] = target: T2, human 5-lipoxygenase (5-LO or 5-LOX) (Homo sapiens, UniProt P09917); experiment: Lipoxygenase Inhibition Assay (LTB4 formation, EIA); assay type: biochemical; settings: 99% bakuchiol; 5-LOX from human PBML cells, arachidonic acid substrate
T2 construct: 5-LOX was isolated from human PBML cells; endogenous in cells; host or cells: human PBML cells (peripheral blood mononuclear leukocytes)
T2 sequence (P09917 1-674): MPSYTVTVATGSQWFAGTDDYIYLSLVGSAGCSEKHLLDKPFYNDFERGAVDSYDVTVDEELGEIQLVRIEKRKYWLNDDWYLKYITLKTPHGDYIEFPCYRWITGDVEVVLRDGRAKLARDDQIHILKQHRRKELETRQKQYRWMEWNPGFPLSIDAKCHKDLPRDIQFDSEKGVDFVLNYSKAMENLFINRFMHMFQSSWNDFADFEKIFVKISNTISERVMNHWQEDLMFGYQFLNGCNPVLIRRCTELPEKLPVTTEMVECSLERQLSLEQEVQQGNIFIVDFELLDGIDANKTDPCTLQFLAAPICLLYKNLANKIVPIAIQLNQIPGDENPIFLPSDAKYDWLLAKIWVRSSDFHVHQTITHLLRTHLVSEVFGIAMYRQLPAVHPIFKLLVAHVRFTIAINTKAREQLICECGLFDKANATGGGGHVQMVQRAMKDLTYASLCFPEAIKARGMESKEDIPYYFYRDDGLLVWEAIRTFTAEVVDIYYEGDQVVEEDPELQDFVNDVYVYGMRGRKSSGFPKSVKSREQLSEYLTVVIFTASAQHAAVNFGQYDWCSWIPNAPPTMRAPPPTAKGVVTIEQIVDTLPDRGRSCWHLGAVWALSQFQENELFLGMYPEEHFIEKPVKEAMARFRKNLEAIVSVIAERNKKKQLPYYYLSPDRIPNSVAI
Method: As noted above, one of the most important pathways involved in the inflammatory response is produced by non-heme, iron-containing lipoxygenases (5-LOX, 12-LOX, and 15-LOX), which catalyze the oxidation of fatty acids such as AA to produce the hydroperoxides 5-, 12- and 15-HPETE, which are then converted to leukotrienes. A Lipoxygenase Inhibition Assay was carried out using a published method (Carter et al. (1991) J. Pharmacol. Exp. Ther. 256(3):929-937, Safayhi et al. (2000) Planta Medica. 66:110-113). 5-LOX was isolated from human PBML cells and arachidonic acid was utilized as a substrate. The test article and positive control were dissolved in 1% DMSO. HBSS (Hank's balanced salt solution) was used as incubation buffer. Pre-incubation time was 15 minutes at 37° C., followed by 15 min. incubation at the same temperature. This assay detects the formation of LTB4 with EIA quantification. Highly pure bakuchiol (99% bakuchiol, #MH-258-12-08) was tested in duplicate at concentrations of 10 μM, 1 μM, 0.1 μM, and 10 nM relative to a positive control-NDGA at five concentrations. The dose response curve is illustrated in the FIG. 6.

[2] = test system: Pityrosporum ovale (ATCC 38593); experiment: Antimicrobial activity; assay type: cell-based; settings: 99% pure sample, tested at 0.03-100 μg/mL
[3] = Acute toxicity, 14-day study in mice; assay type: in vivo, female ICR mice
Method: […] Forty female ICR mice (Harlan) aged 4-5 weeks old were used for the 14-day study. Mice were administered […] of the acute dose daily, approximately 2 g/kg by weight per test article per day. The first 10 mice received the composition containing 20.7% bakuchiol, while the second group of 10 mice received a composition containing 99% bakuchiol. The UP256 composition was suspended in water and administered through a syringe. Twenty mice were administered water, as the control group. The weights of all mice were measured, including baseline, 3 mid points, and an endpoint. […] Any abnormal health conditions or behavior was recorded over the two-week period. A necropsy of all mice was completed on day 14 and blood from all groups was collected for a complete blood screen. Two mice picked randomly from each of groups also had kidney and liver tissues removed for Histopathology. All blood work and pathology work was completed through Antech Diagnostics.

[4] = test system: Staphylococcus epidermidis (Gram Positive, ATCC 12228); experiment: Antimicrobial activity, turbidity; assay type: cell-based; settings: 99% pure sample, tested at 0.03-100 μg/mL, 1 day
Method: (§1) The anti-microbial activity of a highly pure bakuchiol sample (99% pure; #MH-258-12-08) was evaluated using published methods (Modugno et al. (1994) Antimicrobial Agents & Chemotherapy 38:2362-2368; Misiek et al. (1973) Antimicrobial Agents & Chemotherapy 3:40-48). Briefly, Staphylococcus epidermidis (Gram Positive. ATCC 12228) was cultured for 20 hours at 37° C. in Mueller-Hinton Broth medium. Propionibacterium acnes (ATCC 6919) was cultured for 2 days at 37° C. in Reinforced Clostridial medium. The test article and positive control were dissolved in 1% DMSO with an incubation volume of 1 mL. The time of assessment was 1 day. Measurement of turbidity was used as the method of quantification. A highly pure bakuchiol sample (99%; #MH-258-12-08) was tested in duplicate at concentrations of 100 μg/mL, 30 μg/mL, 10 μg/mL, 3 μg/mL, 1 μg/mL, 0.3 μg/mL, 0.1 μg/mL and 0.03 μg/mL relative to positive controls-gentamicin at 0.1 μg/mL for Staphylococcus epidermidis and ampicillin at 0.1 μg/mL for Propionibacterium acnes, respectively.

[5] = test system: Propionibacterium acnes (ATCC 6919); experiment: Antimicrobial activity, turbidity; assay type: cell-based; settings: 99% pure sample, tested at 0.03-100 μg/mL, 1 day
Method: as §1

[6] = test system: Microsporum canis (ATCC 36299); experiment: Antimicrobial activity; assay type: cell-based; settings: 99% pure sample, tested at 0.03-100 μg/mL
COX-1 = COX-1 (Homo sapiens, UniProt P23219); experiment: COX-1 inhibition, peroxidase activity assay; assay type: biochemical; settings: 99% bakuchiol sample, IC50 normalized to enzyme units
Source text: In order to screen for compounds that inhibited COX-1 and COX-2 activity, a high throughput, in vitro assay was developed that utilized the inhibition of the peroxidase activity of both enzymes. (Needleman et al. (1986) Annu Rev Biochem. 55:69). Briefly, the composition or compound being examined was titrated against a fixed amount of COX-1 and COX-2 enzymes. A cleavable, peroxide chromophore was included in the assay to visualize the peroxidase activity of each enzyme in presence of arachidonic acid as a cofactor. Typically, assays were performed in a 96-well format. Each inhibitor, taken from a 10 mg/mL stock solution in 100% DMSO, was tested in triplicate at room temperature using the following range of concentrations: 0, 0.1, 1, 5, 10, 20, 50, 100, and 500 μg/mL. To each well, 150 μL of 100 mM Tris-HCl, pH 7.5 was added along with 10 μL of 22 μM Hematin diluted in tris buffer, 10 μL of inhibitor diluted in DMSO and 25 units of either the COX-1 or COX-2 enzyme. […] The plate was shaken for 10 seconds and then incubated 5 minutes before reading the absorbance at 570 nm. The inhibitor concentration vs. % inhibition was plotted and the IC50 determined by taking the half-maximal point along the isotherm and intersecting the concentration on the X-axis. […]

[7] = test system: Trichophyton mentagrophytes (ATCC 9533); experiment: Antimicrobial activity; assay type: cell-based; settings: 99% pure sample; tested at 0.03-100 μg/mL
[8] = test system: Epidermophyton floccosum (ATCC 18397); experiment: Antimicrobial activity; assay type: cell-based; settings: 99% pure sample, tested at 0.03-100 μg/mL
COX-1 versus COX-2 = settings: COX-1 selective inhibitor; cited from earlier work
[9] = 20.7% and 99% bakuchiol samples, approximately 2 g/kg per day, 14 days
[10] = UP256 at concentrations of 30% and 70%, oral daily 2 g/kg for 14 days
[11] = day 14, 20.7% and 99% bakuchiol samples, approximately 2 g/kg per day
[12] = two mice per group, approximately 2 g/kg per day, 14 days

Chain of COX-1 (P23219 24-599): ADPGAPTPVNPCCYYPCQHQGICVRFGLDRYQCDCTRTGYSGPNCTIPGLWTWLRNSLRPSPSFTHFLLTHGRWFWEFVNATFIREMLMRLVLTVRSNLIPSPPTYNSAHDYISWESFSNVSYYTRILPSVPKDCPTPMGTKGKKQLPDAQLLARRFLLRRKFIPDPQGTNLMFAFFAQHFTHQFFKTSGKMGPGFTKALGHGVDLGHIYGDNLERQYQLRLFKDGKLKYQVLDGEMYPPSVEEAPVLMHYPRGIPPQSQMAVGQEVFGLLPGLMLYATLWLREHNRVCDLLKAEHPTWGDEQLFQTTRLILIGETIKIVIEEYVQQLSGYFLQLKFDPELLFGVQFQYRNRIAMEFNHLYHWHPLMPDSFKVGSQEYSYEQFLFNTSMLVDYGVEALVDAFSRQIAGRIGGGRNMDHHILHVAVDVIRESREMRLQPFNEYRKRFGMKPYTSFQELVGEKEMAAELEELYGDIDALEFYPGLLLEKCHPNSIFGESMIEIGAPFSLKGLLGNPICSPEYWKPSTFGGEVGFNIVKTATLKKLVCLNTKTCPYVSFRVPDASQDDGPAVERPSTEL

C=C[C@@](C)(/C=C/c1ccc(O)cc1)CCC=C(C)C [UP256, bakuchiol]
IC50 (PTPIB): 20.8 µM
IC50 [1]: 3.41 µM
inhibition [2]: No inhibition
inhibition ([2]; listed as bakuchiol): no inhibition
average weight [3, 9]: continued to increase
food/water consumption [3, 9]: remained the same
significant difference in behavior versus control mice [3, 9]: Aggression towards the investigator (i.e. biting) and towards each other (i.e. fighting in cage)
adverse effects, fourteen-day study [3, 10]: No adverse effects
toxicity in major organs tested [3, 10]: no toxicity
adverse effects, fourteen-day study ([3]; both purity levels (20% and 99% purity), approximately 2 g/kg per day): No adverse effects
blood work [3, 11]: normal relative to the controls
necropsy [3, 11]: no gross abnormalities or changes in any organ
histopathology, kidney [3, 12]: significant changes were not present
histopathology, liver hepatocyte nuclei [3, 12]: within normal limits
minimum effective concentration (significant inhibition) [4]: 1 µg/mL
minimum effective concentration (significant inhibition) [5]: 1 µg/mL
inhibition [6]: No inhibition
inhibition ([6]; listed as bakuchiol): no inhibition
IC50 (COX-1): 2.34 µM
logP (physchem): 6.13
concentration of moderate inhibition [7]: 30 µg/mL
inhibition [8]: No inhibition
inhibition ([8]; listed as bakuchiol): no inhibition

CC(=O)Oc1ccccc1C(=O)O [aspirin]
effectiveness against COX-1 versus COX-2 (COX-1 versus COX-2): more than 150 times
